According to ChEMBL document CHEMBL3588794, “Discovery of LRRK2 inhibitors using sequential in silico joint pharmacophore space (JPS) and ensemble docking” (Bioorg Med Chem Lett, 2015):

Key:
[1] = molecular target: Leucine-rich repeat serine/threonine-protein kinase 2 (Homo sapiens, UniProt Q5S007, G2019S); experiment: Inhibition of LRRK2 G2019S mutant (unknown origin)
[2] = molecular target: Leucine-rich repeat serine/threonine-protein kinase 2 (Homo sapiens, UniProt Q5S007); experiment: Inhibition of wild type LRRK2 (unknown origin) assessed as inhibition of LRRKtide phosphorylation after 120 mins by radiometric assay in presence of [gamma-33P]-ATP
Sequence of Leucine-rich repeat serine/threonine-protein kinase 2 (Homo sapiens, UniProt Q5S007) (Q5S007 whole entry, the tested form may be a part): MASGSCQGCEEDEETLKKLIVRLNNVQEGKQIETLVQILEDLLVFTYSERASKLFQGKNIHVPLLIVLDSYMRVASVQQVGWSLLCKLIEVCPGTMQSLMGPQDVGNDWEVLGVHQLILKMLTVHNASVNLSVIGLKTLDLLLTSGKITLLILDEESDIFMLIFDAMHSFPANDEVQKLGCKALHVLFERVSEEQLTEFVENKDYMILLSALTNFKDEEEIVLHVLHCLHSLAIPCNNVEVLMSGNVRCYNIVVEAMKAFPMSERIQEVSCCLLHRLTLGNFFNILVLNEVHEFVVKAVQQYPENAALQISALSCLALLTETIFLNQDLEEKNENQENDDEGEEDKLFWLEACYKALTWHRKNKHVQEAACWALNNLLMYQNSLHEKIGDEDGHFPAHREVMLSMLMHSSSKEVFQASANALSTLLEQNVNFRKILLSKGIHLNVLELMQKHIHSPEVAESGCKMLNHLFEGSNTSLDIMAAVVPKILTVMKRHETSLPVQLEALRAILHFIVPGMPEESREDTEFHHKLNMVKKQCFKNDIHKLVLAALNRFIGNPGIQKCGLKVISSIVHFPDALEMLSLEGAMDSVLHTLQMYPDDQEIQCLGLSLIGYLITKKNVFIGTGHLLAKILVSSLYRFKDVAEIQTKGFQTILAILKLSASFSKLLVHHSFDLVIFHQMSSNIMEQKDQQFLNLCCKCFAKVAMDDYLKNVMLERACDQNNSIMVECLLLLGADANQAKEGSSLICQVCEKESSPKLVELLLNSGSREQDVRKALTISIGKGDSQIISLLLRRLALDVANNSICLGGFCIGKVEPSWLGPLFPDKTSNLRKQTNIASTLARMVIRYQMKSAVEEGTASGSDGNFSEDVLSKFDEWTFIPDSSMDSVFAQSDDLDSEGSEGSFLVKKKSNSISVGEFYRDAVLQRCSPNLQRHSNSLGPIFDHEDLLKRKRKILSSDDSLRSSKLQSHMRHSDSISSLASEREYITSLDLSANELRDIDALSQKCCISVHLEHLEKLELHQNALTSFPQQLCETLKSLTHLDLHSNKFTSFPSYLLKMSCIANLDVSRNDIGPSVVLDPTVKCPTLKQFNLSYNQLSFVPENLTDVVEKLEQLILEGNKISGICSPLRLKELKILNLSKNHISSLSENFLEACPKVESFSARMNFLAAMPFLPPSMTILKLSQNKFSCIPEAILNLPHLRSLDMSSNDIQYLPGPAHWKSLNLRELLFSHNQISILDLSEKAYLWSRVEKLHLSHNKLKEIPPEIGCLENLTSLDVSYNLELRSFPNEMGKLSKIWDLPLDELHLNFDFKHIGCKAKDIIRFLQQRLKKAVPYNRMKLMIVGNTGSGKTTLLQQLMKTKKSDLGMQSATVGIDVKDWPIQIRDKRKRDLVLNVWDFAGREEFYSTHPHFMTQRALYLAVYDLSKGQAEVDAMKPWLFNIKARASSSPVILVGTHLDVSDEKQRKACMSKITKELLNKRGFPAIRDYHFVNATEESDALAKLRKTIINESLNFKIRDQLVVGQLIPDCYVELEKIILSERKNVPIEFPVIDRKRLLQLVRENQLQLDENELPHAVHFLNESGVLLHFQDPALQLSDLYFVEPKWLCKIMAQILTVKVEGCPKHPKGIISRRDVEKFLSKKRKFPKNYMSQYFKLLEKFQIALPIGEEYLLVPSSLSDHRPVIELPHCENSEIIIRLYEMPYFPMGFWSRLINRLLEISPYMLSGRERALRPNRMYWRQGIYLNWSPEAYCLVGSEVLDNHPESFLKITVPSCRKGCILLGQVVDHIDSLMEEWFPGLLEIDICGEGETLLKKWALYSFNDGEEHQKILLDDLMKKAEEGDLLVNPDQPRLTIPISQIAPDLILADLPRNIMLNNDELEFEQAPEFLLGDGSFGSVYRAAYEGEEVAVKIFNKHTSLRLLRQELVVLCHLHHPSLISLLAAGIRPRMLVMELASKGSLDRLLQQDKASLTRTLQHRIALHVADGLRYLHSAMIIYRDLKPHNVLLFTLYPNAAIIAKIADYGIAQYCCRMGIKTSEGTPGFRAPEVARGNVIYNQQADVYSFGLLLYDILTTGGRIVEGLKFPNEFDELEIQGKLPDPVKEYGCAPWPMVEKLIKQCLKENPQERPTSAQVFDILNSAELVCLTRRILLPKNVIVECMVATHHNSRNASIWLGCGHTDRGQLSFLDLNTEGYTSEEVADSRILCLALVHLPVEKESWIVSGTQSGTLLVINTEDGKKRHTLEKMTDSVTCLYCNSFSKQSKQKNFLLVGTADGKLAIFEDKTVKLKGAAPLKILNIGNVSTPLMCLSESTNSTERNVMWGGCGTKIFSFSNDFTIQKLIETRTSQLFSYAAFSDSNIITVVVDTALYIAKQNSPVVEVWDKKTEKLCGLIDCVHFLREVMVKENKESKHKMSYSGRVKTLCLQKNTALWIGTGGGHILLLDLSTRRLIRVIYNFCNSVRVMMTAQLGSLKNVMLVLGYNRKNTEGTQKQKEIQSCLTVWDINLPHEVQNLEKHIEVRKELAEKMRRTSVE

[3] = molecular target: Tyrosine-protein kinase JAK2 (Homo sapiens) (UniProt O60674); experiment: Inhibition of JAK2 JH1 catalytic domain (unknown origin) at 10 uM relative to control
Sequence of Tyrosine-protein kinase JAK2 (Homo sapiens) (O60674 whole entry, the tested form may be a part): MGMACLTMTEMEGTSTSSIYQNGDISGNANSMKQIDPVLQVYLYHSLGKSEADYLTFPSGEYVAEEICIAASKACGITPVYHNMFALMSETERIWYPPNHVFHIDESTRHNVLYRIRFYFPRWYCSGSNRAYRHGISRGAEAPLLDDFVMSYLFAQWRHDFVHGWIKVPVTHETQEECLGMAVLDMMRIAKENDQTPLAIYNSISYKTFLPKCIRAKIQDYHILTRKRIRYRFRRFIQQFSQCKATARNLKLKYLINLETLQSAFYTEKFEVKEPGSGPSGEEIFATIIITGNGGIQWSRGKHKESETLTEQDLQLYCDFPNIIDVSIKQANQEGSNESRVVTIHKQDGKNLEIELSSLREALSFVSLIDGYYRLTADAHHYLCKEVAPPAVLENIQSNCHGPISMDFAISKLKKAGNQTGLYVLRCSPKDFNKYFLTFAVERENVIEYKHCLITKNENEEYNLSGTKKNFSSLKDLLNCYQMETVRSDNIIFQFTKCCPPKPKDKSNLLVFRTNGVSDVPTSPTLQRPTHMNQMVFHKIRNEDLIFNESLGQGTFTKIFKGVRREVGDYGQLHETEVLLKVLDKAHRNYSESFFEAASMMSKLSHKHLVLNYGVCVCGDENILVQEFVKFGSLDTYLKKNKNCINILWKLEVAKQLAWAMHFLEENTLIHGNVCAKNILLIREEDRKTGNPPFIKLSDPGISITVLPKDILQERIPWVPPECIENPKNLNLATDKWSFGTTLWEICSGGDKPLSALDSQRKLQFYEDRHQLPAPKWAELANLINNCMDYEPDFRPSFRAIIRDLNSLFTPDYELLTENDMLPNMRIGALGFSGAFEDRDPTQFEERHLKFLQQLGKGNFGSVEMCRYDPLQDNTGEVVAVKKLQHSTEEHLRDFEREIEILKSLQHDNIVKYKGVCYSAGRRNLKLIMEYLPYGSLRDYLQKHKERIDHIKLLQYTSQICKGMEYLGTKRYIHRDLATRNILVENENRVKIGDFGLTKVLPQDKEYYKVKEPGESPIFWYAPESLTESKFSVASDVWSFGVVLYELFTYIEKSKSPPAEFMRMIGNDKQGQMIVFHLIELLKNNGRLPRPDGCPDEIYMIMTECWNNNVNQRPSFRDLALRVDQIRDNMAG

Sequence of Leucine-rich repeat serine/threonine-protein kinase 2 (Homo sapiens, UniProt Q5S007, G2019S) (Q5S007 whole entry G2019S): as the sequence (Q5S007 whole entry, the tested form may be a part) above, with G2019S counted along it

| IC50 [1] | IC50 [2] | inhibition [3] | Structure (SMILES) |
| --- | --- | --- | --- |
| 1.9 µM | 4.8 µM |  | CC(c1ccc(NC(=O)c2cc(C3CC3)[nH]n2)cc1)N1CCOCC1 (configuration not stated) |
| 2 µM | 2.8 µM |  | O=C(NCCO)c1ccc(Nc2nc(-c3ccccc3)c3cc(Cl)ccc3n2)cc1 |
|  |  | 74% | N#Cc1ccc(Nc2ccc3[nH]c(=O)[nH]c3c2)c([N+](=O)[O-])c1 |
| 3.3 µM | 4.6 µM |  | Cc1ccc(NC(=O)c2ccc(CN3CCNCC3)cc2)cc1Nc1nccc(-c2cccnc2)n1 |
